Results published in article PMC5369532, “NMR-filtered virtual screening leads to non-metal chelating metallo-β-lactamase inhibitors” (Chemical Science, 2016).
pIC50: −log10 of the molar value. “Also recorded” adds a separate entry of the source. Where two headings read alike, the source gives them in different places.

How the values were obtained:
VIM-2 = biological target: T1, VIM-2 (Escherichia coli, UniProt Q5U7L7); experiment: biochemical; type: biochemical; details: for differences between the inhibitory activity with or without excess Zn(II): 0 μM, 1 μM and 100 μM Zn(II); for IC50: read-out: pIC50 (VIM-2) (converted)
T1 construct: made in house; host or cells: Escherichia coli
Method: (§1) Except where noted, recombinant forms of NDM-1, VIM-2, SPM-1, IMP-1, and BcII MBLs were produced in Escherichia coli and assays were carried out as described previously10. The IC50 values of all the compounds for VIM-2 were determined using […]
concentrations (0 μM, 1 μM, and 100 μM, see Fig. S8). The selectivity profiles of […]
as described above. The inhibitory activities of these compounds against CphA (B2 […]
MBL; IMP, Imipenemase; NDM, New Delhi MBL; TEM-1: Temomeira-type 1 […]
b The enzyme concentrations of the purified proteins were determined by measuring Abs@280nm using a NanoDrop (ThermoFisher) spectrometer and calculated molar extinction coefficient for each sample; concentrations of diluted solutions used in the assay were calculated from the original concentration. […]
negative controls. These were tested in same assay conditions but at 2mM instead of 100uM compound concentration. […]

VIM-1 = VIM-1 (Pseudomonas aeruginosa, UniProt A0A0F7KYQ8); experiment: biochemical; details: n ≥ 3
apo-VIM-2 = apo-VIM-2 (Escherichia coli, UniProt Q5U7L7); type: binding; details: 50 μM apo enzyme, 50 μM compound, 50 mM Tris-D11 pH 7.5
Method: (§2) Except where noted, recombinant forms of NDM-1, VIM-2, SPM-1, IMP-1, and BcII MBLs were produced in Escherichia coli and assays were carried out as described […]
(§3) previously10. […]
(§4) Nuclear Magnetic Resonance (NMR) spectra were recorded using a Bruker AVIII 600 MHz NMR spectrometer equipped with a BB-19F/1H Prodigy N2 cryoprobe using 5 mm diameter NMR tubes (Norell). Typical experimental parameters for Carr-Purcell-Meiboom-Gill (CPMG) NMR spectroscopy were: total echo time, 40 ms; […]
(§5) The PROJECT-CPMG sequence
(§6) (90°x−[τ−180°y−τ−90°y−τ−180°y−τ]n−acq) was applied. 15 Water suppression was achieved by pre-saturation. Data were processed with Bruker 3.1 software. Prior to […]
(§7) Fourier transformation, data were multiplied with an exponential function with 0.5 Hz […]
(§8) line broadening. […]

di-Zn(II) VIM-2 = biological target: T2, di-Zn(II) VIM-2 (Escherichia coli, UniProt Q5U7L7); type: binding; details: 50 μM enzyme, 50 μM Zn(II), 50 μM compound, 50 mM Tris-D11 pH 7.5
T2 construct: made in house
Method: as §2, §3, §4, §5, §6, §7, §8

class B MBLs = experiment: Selectivity profile against class B MBLs (Fig. S21); type: biochemical
Method: The 1H NMR and 13C NMR spectra for compounds 34a, 34b, 34, 35a, 35b, and 35 […]
as §1
the FC-5 based assay10. […]
concentrations (0 μM, 1 μM, and 100 μM, see Fig. S8). The selectivity profiles of compounds of interest against other B1 MBLs including VIM-511, VIM-110, NDM-1, SPM-1, and BcII, and TEM-112 (class A SBL) were determined using the same method as described above. The inhibitory activities of these compounds against CphA (B2 MBL)13 and L1 (B3 MBL)14 were determined using meropenem and nitrocefin, […]
at 100 μM. The details regarding enzyme concentrations, substrate concentration are in […]
Nuclear Magnetic Resonance (NMR) spectra were recorded using a Bruker AVIII 600 MHz NMR spectrometer equipped with a BB-19F/1H Prodigy N2 cryoprobe using 5 mm diameter NMR tubes (Norell). Typical experimental parameters for Carr-Purcell-Meiboom-Gill (CPMG) NMR spectroscopy were: total echo time, 40 ms; relaxation delay, 2 s; and number of transients, 128. The PROJECT-CPMG sequence (90°x−[τ−180°y−τ−90°y−τ−180°y−τ]n−acq) was applied. 15 Water suppression was achieved by pre-saturation. Data were processed with Bruker 3.1 software. Prior to […]

[1] = FC-5 based assay, n ≥ 3, read-out: IC50 (VIM-2)

| Compound | pIC50 (VIM-2; [1]) | pIC50 (VIM-1) | also measured |
| --- | --- | --- | --- |
| Cc1c/c(=N\c2ccccc2C(=O)O)n2ncnc2[nH]1 [Compound 8] | < 2.80 |  |  |
| C=CCC1c2cccc(C(=O)O)c2C(=O)N1c1cccc(OC)c1 (stereo not shown) [Compound 42] | 4.69 | < 3.40 |  |
| O=C(O)c1cccc2c1C(=O)N(c1ccccc1Cl)C2 [Compound 33] | 4.13 | < 3.40 |  |
| O=C(O)/C=C/C(=O)c1ccc(O)cc1 [Compound 1] |  |  | pIC50 (VIM-2; IC50 (VIM-2)): 3.20 |
| Cc1cc(N/N=C/c2ccc(O)c(C(=O)O)c2)nc(-c2ccccc2O)n1 [Compound 20] | > 3.40 |  | differences between the inhibitory activity with or without excess Zn(II) (VIM-2): no obvious differences |
| CC(c1ccccc1)N1Cc2cccc(C(=O)O)c2C1=O (stereo not shown) [Compound 28] | 3.77 | < 3.40 | IC50 (VIM-2; FC-5 based assay, n ≥ 3): 166 µM |
| O=C(O)c1cccc2c1C(=O)N(c1ccccc1)C2 [Compound 30] | 4.75 | < 3.40 |  |
| C[C@H](CS)C(=O)N1CCC[C@H]1C(=O)O [L-Captopril, reference compound] |  |  | binding to apo-VIM-2 by 1H CPMG NMR (apo-VIM-2): very weak binding; also recorded: very weakly; binding to di-Zn(II) VIM-2 by 1H CPMG NMR (di-Zn(II) VIM-2): strong binding; also recorded: binds strongly |
| COc1ccc(CN2Cc3cccc(C(=O)O)c3C2=O)cc1OC [Compound 25] | 3.49 | < 3.40 | IC50 (VIM-2; FC-5 based assay, n ≥ 3): 316 µM |
| O=C(O)CCC(NS(=O)(=O)c1ccccc1)C(=O)O (stereo not shown) [Compound 11] |  |  | pIC50 (VIM-2; IC50 (VIM-2)): 2.95; pIC50 (VIM-2; pIC50 (VIM-2)): 2.96 |
| CNCc1ccc(-c2cccc(C(=O)O)c2)o1 [Compound 5] | < 2.80 |  |  |
| O=C(O)C(=Cc1ccc(-c2ccc(Cl)cc2)o1)C(=O)O [Compound 12] | 4.06 |  | differences between the inhibitory activity with or without excess Zn(II) (VIM-2): no obvious differences; binding to apo-VIM-2 by 1H CPMG NMR (apo-VIM-2): weak binding; also recorded: weakly; binding to di-Zn(II) VIM-2 by 1H CPMG NMR (di-Zn(II) VIM-2): strong binding; also recorded: binds strongly; inhibition of the tested class B MBLs (in words) (class B MBLs): broad-spectrum inhibition |
| NC(=O)N/N=C/c1cccc(C(=O)O)c1O [Compound 3] | < 2.80 |  |  |
| C=CCC1c2cccc(C(=O)OC)c2C(=O)N1c1ccccc1 (stereo not shown) [Compound 43] | < 3.40 | < 3.40 | inhibitory activity against VIM-2 (in words) (VIM-2): much lower inhibitory potency |
| COc1ccccc1N1Cc2cccc(C(=O)O)c2C1=O [Compound 31] | 3.88 | < 3.40 |  |
| Cc1ccc(-c2cn3nnc(C(=O)O)c3c(=O)[nH]2)cc1 [Compound 9] | 3.36 |  |  |
| O=C(O)c1cccc2c1C(=O)N(C1CCCC1)C2 [Compound 37] | 4.17 | < 3.40 |  |
| NC(=S)N/N=C1\C(=O)Nc2c(C(=O)O)cccc21 [Compound 7] | 3.70 |  | differences between the inhibitory activity with or without excess Zn(II) (VIM-2): no obvious differences; binding to apo-VIM-2 by 1H CPMG NMR (apo-VIM-2): binding; binding to di-Zn(II) VIM-2 by 1H CPMG NMR (di-Zn(II) VIM-2): binding; also recorded: binds |
| O=C(O)c1cccc2c1C(=O)N(CCc1ccccc1)C2 [Compound 39] | 4.14 | < 3.40 |  |
| C=CCC1c2cccc(C(=O)O)c2C(=O)N1c1ccc(F)cc1 (stereo not shown) [Compound 41] | 4.61 | < 3.40 |  |
| O=C(O)c1cccc2c1C(=O)N(Cc1cccs1)C2 [Compound 36] | 3.82 | < 3.40 |  |

| Compound | pIC50 (VIM-2; [1]) | pIC50 (VIM-1) | also measured |
| --- | --- | --- | --- |
| O=C(O)C(Cc1ccc(O)cc1)NC1CCS(=O)(=O)C1 (stereo not shown) [Compound 14] | 3.17 |  | IC50 (VIM-2; FC-5 based assay, n ≥ 3): 661 µM |
| O=C(O)c1cccc2c1C(=O)N(Cc1cccnc1)C2 [Compound 21] | 3.46 | < 3.40 |  |
| COc1cccc(N2Cc3cccc(C(=O)O)c3C2=O)c1 [Compound 32] | 4.41 | < 3.40 |  |
| O=C(O)c1cccc2c1C(=O)N(Cc1ccncc1)C2 [Compound 22] | < 3.40 | < 3.40 |  |
| O=C(Cc1ccc(Cl)cc1)c1ccc(O)cc1O [Compound 6] | 3.95 |  | differences between the inhibitory activity with or without excess Zn(II) (VIM-2): no obvious differences; binding to apo-VIM-2 by 1H CPMG NMR (apo-VIM-2): strong binding; also recorded: binds; binding to di-Zn(II) VIM-2 by 1H CPMG NMR (di-Zn(II) VIM-2): strong binding; also recorded: strong binder |
| O=C(O)CC1CC(c2ccc(F)cc2)=NO1 (stereo not shown) [Compound 4] | 3.25 |  |  |
| O=C(O)c1cccc2c1C(=O)N(c1ccc(O)c(F)c1)C2 [Compound 35] | 5.11 | < 3.40 |  |
| COc1cc(CN2Cc3cccc(C(=O)O)c3C2=O)cc(OC)c1OC [Compound 26] | < 3.40 | < 3.40 |  |
| CN(C)Cc1ccc(N2Cc3cccc(C(=O)O)c3C2=O)cc1 [Compound 34] | 4.22 | < 3.40 |  |
| O=C(O)C1CC(c2ccccc2F)=NO1 (stereo not shown) [Compound 2] | 3.00 |  |  |
| O=C(O)c1cccc2c1C(=O)N(CC1CCCO1)C2 (stereo not shown) [Compound 38] | < 3.40 | < 3.40 |  |
| CC(=O)Nc1ccc(S(=O)(=O)N2CCCC2C(=O)O)cc1 (stereo not shown) [Compound 15] | < 2.80 |  |  |
| Cc1oc2c(c1C(=O)O)C(=O)CC(c1ccccc1)C2 (stereo not shown) [Compound 10] | < 2.80 |  |  |
| COCCCN1Cc2cccc(C(=O)O)c2C1=O [Compound 40] | < 3.40 | < 3.40 |  |
| CN(C)c1ccc(/C=C/C(=O)c2ccccc2C(=O)O)cc1 [Compound 13] | 3.87 |  | differences between the inhibitory activity with or without excess Zn(II) (VIM-2): no obvious differences; binding to apo-VIM-2 by 1H CPMG NMR (apo-VIM-2): weak binding; also recorded: weakly; binding to di-Zn(II) VIM-2 by 1H CPMG NMR (di-Zn(II) VIM-2): strong binding; also recorded: binds strongly; inhibition of the tested class B MBLs (in words) (class B MBLs): broad-spectrum inhibition |
| O=C(O)c1cccc(/C=N/N=C/c2cccc(C(=O)O)c2O)c1O [Compound 18] | 3.93 |  | binding to apo-VIM-2 by 1H CPMG NMR (apo-VIM-2): binding; also recorded: binds; binding to di-Zn(II) VIM-2 by 1H CPMG NMR (di-Zn(II) VIM-2): binding; also recorded: binds |
| O=C(O)c1cccc2c1C(=O)N(Cc1ccccc1F)C2 [Compound 24] | 4.33 | < 3.40 |  |
| CN(C)c1ccc(CN2Cc3cccc(C(=O)O)c3C2=O)cc1 [Compound 27] | 3.75 | < 3.40 | IC50 (VIM-2; FC-5 based assay, n ≥ 3): 174 µM |
| CC(c1ccncc1)N1Cc2cccc(C(=O)O)c2C1=O (stereo not shown) [Compound 29] | 3.64 | < 3.40 |  |
| O=C(O)c1cccc2c1C(=O)N(Cc1ccc(F)cc1)C2 [Compound 23] | 3.60 | < 3.40 |  |
